Data reported in patent US4444776A, “Dipyrido (4,3-B) (3,4-F) indoles, process for obtaining them, therapeutical use and pharmaceutical compositions” (priority 1977, dated 1984).
Where two headings read alike, the source gives them in different places.

How the values were obtained:
[1] = Test 8: acute toxicity in vivo, ICFW mice; conditions: mouse, read-out: LD 500
Experimental: (§1) Test 8: Acute toxicity in vivo
(§2) The products to be tested were injected by the IP route into groups of 10 mice at various dilutions. Each day, the number of dead animals is noted. If the doses are well chosen, a 100% lethal dose and a 50% lethal dose have been able to be defined for each product. This study is limited to two months. Two isogenic mouse strains were systematically used: C3H/He and ICFW.

ICFW mice = assay: Test 8: acute toxicity in vivo, ICFW mice; conditions: mouse, ip
Experimental: as §1, §2

[2] = system: tumoral strain derived from the murine leukemia due to the C. FRIEND virus; assay: Test 7: antitumoral activity in vitro on Friend leukemia tumoral strain; format: cell-based; conditions: HUM = 1
Experimental: Test 7: Study of the antitumoral activity in vitro
This activity was measured on a tumoral strain derived from the murine leukemia due to the C. FRIEND virus.
The tumoral cells multiply in suspension in a "RPMI 1640" medium (Catalogue of GIBCO Bio-cult. Ltd. Washington Road, Sandyford Industrial Estate, PAISLEY PA 3 4EP, Renfrewshire, Scotland) supplemented with 20% of embryonary calf serum, penicillin and streptomycine. The duplication time of these cells is 11 hours. The growth fraction is equal to 1 or very close to 1 (all the cells are in the cycle). The cultures are sub-culturedat time t=0 at the concentration of 2.10^5 cells per ml in Falcon dishes containing 4 ml of medium. After twenty four hours, the product to be tested was added, i.e. at a moment when the cultures are in exponential phase of growth. Twenty four hours after the addition of the product, the cells are counted and the percentage of living cells determined by an exclusion test using "trypan" blue.

[3] = Test 4: toxicity on adult F1 mice, IP; conditions: in vivo
From the text: Test 4: Investigation of the toxicity
The toxic dose has been sought, on adult ([…]×DBA/2) Fl mice and on new-born mice, of the compounds of the invention by injection by the IP route. The results obtained are given hereinafter:
1- On adult F1 mice (C 57 BL 6×DBA/2)F1 (IP route)

L1210 leukemia [4] = assay: Test 16: structure-activity of R'1 substitution, L1210 (Table XII); format: in vivo, mouse (C57B16xDBA/2)F1; set-up: MST: unit not given here; conditions: for 60 days surv. / ILS % / MST / Range of death: day +1
Experimental: Test 16: Relationship between structure and activity of various dipyrido indoles differing by the R'1 substitution.
L1210 leukemia has been maintained by weekly passages on (C57B16xDBA/2)F1 mice. On day 0, mice were inoculated by I.P. route with various numbers of L1210 ascitic tumor cells in volumes of 0.1 ml. Subsequently as indicated, drugs were administrated in Ca^++ and Mg^++ free PBS solutions (Gibco) or in Mac Coy's medium (Gibso or Microbiological Associates). […]

Lewis carcinoma (3LL) = assay: Test 13: Lewis carcinoma, antimetastasic effect; format: in vivo, BDF1 mice; conditions: for MST: controls 25
Experimental: "carcinome pulmonaire de Lewis" (3LL), K. SUGIURA and C. C. STOCK," Cancer Res. 1955 15 38-51.
In this test, cells (10^6 cells) removed from a tumour-carrying mouse were injected into mice(BDF1) by the IM route. The mice developed, 10 to 15 days after the inoculation, a tumour at the spot where the injection was made. On the other hand, these cells made metastasis in the lung, forming colonies on the pulmonary surface. The antitumoral and antimetastasic effect of a product may therefore be judged on mice thus treated.
Investigation of the antimetastasic effect of the compounds of examples 7 and 8 of the invention
10^6 cells taken from a tumour-carrying mouse were injected by the IM route (left-band paw) into groups of 10 mice and the compounds to be tested were inoculated by the IP route on day J+5 by single or fractioned injection. The mean survival time (MST) and the increased life span (ILS %) were determined.

L 1210 leukemia = assay: Test 10: comparison of antitumoral activity with known products, L 1210 (Tables V-VII); format: in vivo, mouse
Experimental: Test 10: Comparison of the antitumoral activity of the compound according to example 7 with that of known products
The compound of example 7, i.e. 1-(γ-diethylaminopropyl)amino-5-methyl-dipyrido-[4,3-b][3,4-f] indole or known compounds were injected into L 1210 leukemic mice 1 or 3 days after the inoculation of the cells at the doses indicated in tables V to VII and the mean survival time (MST) and the precentage of increased life span (ILS %) were measured.
Indications concerned the known products used in this example and particularly their antitumoral properties, their secondary effects and their use in man may be found in "La Chimiotherapie des Cancers", by G. MATHE and M. KENIS Expansion Scientifique Francaise, 3rd edition, Paris 1975.

L1210 leukemia [5] = assay: Test 18: dose-L1210 antitumoral activity of compound 21; format: in vivo, mouse
From the text: Test 18: Relationship between dose and L1210 antitumoral activity of compound 21 […]

[6] = 10^4 cells, 5 mg/kg, control MST 11.8
[7] = second group: 10^4 cells, 5 mg/kg, control MST 10.9
[8] = 4 injections J+5+6+10+11, 2.5 mg/kg each
[9] = Table V, 10^4 cells, J+1, 0.2 mg/mouse
[10] = Table V, 10^4 cells, J+3, doses mg/mouse: example 7 0.2, Thiotepa 0.1, Mitomycine 0.016, BCNU 0.1, Methotrexate 0.250
[11] = Table VI, 10^5 cells, J+1, 0.2 mg/mouse
[12] = Table VI, 10^5 cells, J+3, mg/mouse: Thiotepa 0.1, Mitomycine C 0.016, BCNU 0.1, Methotrexate 0.250, example 7 0.2, Endoxan 4
[13] = Table VII, 10^5 cells, J+3, example 7 0.2 mg/mouse, ON COVIN 0.5 μg/mouse

## Cc1c2ccncc2c(C)c2c1[nH]c1ccncc12 [Example 1, 5,11-dimethyl dipyrido [4,3-b][3,4-f] indole]
[1]; ip
  LD50: 150 mg/kg
ICFW mice
  LD 100: 200 mg/kg
[2]
  Activity (ratio of the LD50 of HUM to the LD50 of the product tested): 3
[3]; mouse, ip, 20 mg/kg
  mortality: 16.7%
[3]; mouse, ip, 40 mg/kg
  mortality: 12.5%
[3]; mouse, ip, 80 mg/kg
  mortality: 83.3%

## CCN(CC)CCCNc1nccc2c(C)c3[nH]c4ccncc4c3cc12 [Example 7, 1-(γ-diethylaminopropyl)amino-5-methyl-dipyrido-[4,3-b][3,4-f] indole]
L1210 leukemia [4]; 10^3 cells, 0.5 mg/kg
  60 days surv.: 3
  ILS %: 17.4%
  MST: 16.2
  Range of death: 14-20
L1210 leukemia [4]; 10^3 cells, 5 mg/kg
  60 days surv.: 5
  ILS %: 23.2%
  MST: 17
  Range of death: 15-22
L1210 leukemia [4]; 10^4 cells, 0.5 mg/kg
  60 days surv.: 0
  ILS %: 11.5%
  MST: 13.54
  Range of death: 11-15
L1210 leukemia [4]; [6]
  60 days surv.: 1
  ILS %: 33.3%
  MST: 16.2
  Range of death: 13-21
L1210 leukemia [4]; Table XII summary
  antitumoral activity compared with Ellipticinium acetate (HUM): compete favorably with Ellipticinium acetate (HUM)
L1210 leukemia [4]; [7]
  60 days surv.: 1
  ILS %: 65.1%
  MST: 18
  Range of death: 14-21
[1]; ICFW, IP
  LD50: 15 mg/kg
ICFW mice
  LD 100: 25 mg/kg
Lewis carcinoma (3LL); 1 injection J+5, 10 mg/kg
  ILS %: 30.8%
  MST: 32.7
Lewis carcinoma (3LL); [8]
  ILS %: 9.6%
  MST: 27.4
Lewis carcinoma (3LL); IP from J+5
  protective action concerning metastasic pulmonary invasion of the lung: give a protective action
Lewis carcinoma (3LL); one mouse sacrificed day J+22, one injection J+5, non-treated mouse 77
  pulmonary metastases counted: 35
L 1210 leukemia; [9]
  Range of death (first death): 6 days
  mice alive on 30th day: 1
L 1210 leukemia; [10]
  ILS %: 25.45%
  MTS (mean survival time): 13.8
L 1210 leukemia; Table V, 10^4 cells, J+3, mg/mouse: example 7 0.2, Thiotepa 0.1, Mitomycine 0.016, BCNU 0.1, Methotrexate 0.250, Endoxan 4
  Range of death: 11 to 17 days
L 1210 leukemia; [11]
  ILS %: 39.07%
  MTS (mean survival time): 12.6
  Range of death: 9-16
L 1210 leukemia; [12]
  ILS %: 35.43%
  MTS (mean survival time): 12.27
  Range of death: 10-15
L 1210 leukemia; [13]
  ILS %: 36.35%
  MTS (mean survival time): 14.18
  Range of death: 13-16
L1210 leukemia [5]; 5 mg/kg
  ILS: 87%
L1210 leukemia [5]; 10 mg
  ILS: 52%
L1210 leukemia [5]; 20 mg per kg
  inoculated mice surviving up to 60 days: 20%
L1210 leukemia [5]; 20 mg/kg
  ILS: 75%
L1210 leukemia [5]; 100mg (so in the source)
  inoculated mice surviving up to 60 days: 10%
[2]
  Activity (ratio of the LD50 of HUM to the LD50 of the product tested): 20
[3]; 0.3 mg/mouse (15 mg/kg), IP, read-out: dead mice (converted)
  mortality: 0%
[3]; 0.5 mg/mouse (25 mg/kg), IP, read-out: dead mice (converted)
  mortality: 0%
[3]; 0.6 mg/mouse (30 mg/kg), IP, read-out: dead mice (converted)
  mortality: 50%
[3]; 1 mg/mouse (50 mg/kg), IP, read-out: dead mice (converted)
  mortality: 33.3%
[3]; mouse, adult F1 mice, IP
  LD50: 30 mg/kg
